{"source": "patent US6866857B1", "about": "“Oxalipatinum preparation packaging” (Debiopharm S.A., priority 1998, dated 2005)", "key": {"[1]": {"experiment": "accelerated stability study of liquid oxaliplatinum solution packed in flexible bag", "type": "physicochemical", "details": "for Appearance of the solution / pH / Impurities by HPLC (%) / L-OHP titre/standard (%) / Oxalic acid titre (%): 2 mg/ml solution, 40° C."}, "[2]": {"experiment": "tolerance of aqueous oxaliplatinum preparations to contact with PVC-based materials", "type": "physicochemical", "details": "pharmaceutical preparations in aqueous solution"}, "[3]": {"details": "6 Months, HPLC, PA 11/PP bag, 75% RH"}, "[4]": {"details": "12 Months, PA 11/PP bag, 75% RH"}, "[5]": {"details": "12 Months, HPLC, PA 11/PP bag, 75% RH"}, "[6]": {"details": "Week 0, HPLC, PA 11/PP bag, 75% RH"}, "[7]": {"details": "Week 1, HPLC, PA 11/PP bag, 75% RH"}, "[8]": {"details": "Week 2, HPLC, PA 11/PP bag, 75% RH"}, "[9]": {"details": "Week 3, HPLC, PA 11/PP bag, 75% RH"}, "[10]": {"details": "Week 4, HPLC, PA 11/PP bag, 75% RH"}, "[11]": {"details": "Week 5, HPLC, PA 11/PP bag, 75% RH"}, "[12]": {"details": "Week 12, HPLC, PA 11/PP bag, 75% RH"}}, "note": "Entries after “also recorded” stand apart in the source; their conditions may differ."}
{"smiles": "O=C1[O][Pt]2([NH][C@@H]3CCCC[C@H]3[NH]2)[O]C1=O", "note": "(relative stereo) [oxaliplatinum, cis-oxalato(trans-1-1-diaminocyclohexane) platinum(II)]", "values": [{"measurement": "Appearance of the solution", "setting": "[1]; 6 Months, PA 11/PP bag, 75% RH", "value": "Clear,"}, {"measurement": "pH", "setting": "[1]; 6 Months, PA 11/PP bag, 75% RH", "value": 5.20}, {"measurement": "Impurities by HPLC (%)", "setting": "[1]; [3]", "value": 0.5, "unit": "%"}, {"measurement": "L-OHP titre/standard (%)", "setting": "[1]; [3]", "value": 98.9, "unit": "%"}, {"measurement": "Oxalic acid titre (%)", "setting": "[1]; [3]", "value": "<0.1", "unit": "%"}, {"measurement": "Appearance of the solution", "setting": "[1]; [4]", "value": "Clear,"}, {"measurement": "pH", "setting": "[1]; [4]", "value": 5.30}, {"measurement": "Impurities by HPLC (%)", "setting": "[1]; [5]", "value": 0.6, "unit": "%"}, {"measurement": "L-OHP titre/standard (%)", "setting": "[1]; [5]", "value": 98.5, "unit": "%"}, {"measurement": "Oxalic acid titre (%)", "setting": "[1]; [5]", "value": "<0.1", "unit": "%"}, {"measurement": "maximum percentage of apparent impurities", "setting": "[1]; HPLC", "value": "≤ 2", "unit": "%"}, {"measurement": "Appearance of the solution", "setting": "[1]; Week 0, 100 ml PA 11/PP bag, 75% relative humidity", "value": "Clear,"}, {"measurement": "pH", "setting": "[1]; Week 0, PA 11/PP bag, 75% RH", "value": 5.56}, {"measurement": "Impurities by HPLC (%)", "setting": "[1]; [6]", "value": 0.10, "unit": "%"}, {"measurement": "L-OHP titre/standard (%)", "setting": "[1]; [6]", "value": 99.7, "unit": "%"}, {"measurement": "Oxalic acid titre (%)", "setting": "[1]; [6]", "value": "<0.1", "unit": "%"}, {"measurement": "Appearance of the solution", "setting": "[1]; Week 1, PA 11/PP bag, 75% RH", "value": "Clear,"}, {"measurement": "pH", "setting": "[1]; Week 1, PA 11/PP bag, 75% RH", "value": 5.10}, {"measurement": "Impurities by HPLC (%)", "setting": "[1]; [7]", "value": 0.60, "unit": "%"}, {"measurement": "L-OHP titre/standard (%)", "setting": "[1]; [7]", "value": 100.1, "unit": "%"}, {"measurement": "Oxalic acid titre (%)", "setting": "[1]; [7]", "value": "<0.1", "unit": "%"}, {"measurement": "Appearance of the solution", "setting": "[1]; Week 2, PA 11/PP bag, 75% RH", "value": "Clear,"}, {"measurement": "pH", "setting": "[1]; Week 2, PA 11/PP bag, 75% RH", "value": 5.24}, {"measurement": "Impurities by HPLC (%)", "setting": "[1]; [8]", "value": 0.50, "unit": "%"}, {"measurement": "L-OHP titre/standard (%)", "setting": "[1]; [8]", "value": 100.0, "unit": "%"}, {"measurement": "Oxalic acid titre (%)", "setting": "[1]; [8]", "value": "<0.1", "unit": "%"}, {"measurement": "Appearance of the solution", "setting": "[1]; Week 3, PA 11/PP bag, 75% RH", "value": "Clear,"}, {"measurement": "pH", "setting": "[1]; Week 3, PA 11/PP bag, 75% RH", "value": 5.22}, {"measurement": "Impurities by HPLC (%)", "setting": "[1]; [9]", "value": 0.50, "unit": "%"}, {"measurement": "L-OHP titre/standard (%)", "setting": "[1]; [9]", "value": 100.9, "unit": "%"}, {"measurement": "Oxalic acid titre (%)", "setting": "[1]; [9]", "value": "<0.1", "unit": "%"}, {"measurement": "Appearance of the solution", "setting": "[1]; Week 4, PA 11/PP bag, 75% RH", "value": "Clear,"}, {"measurement": "Impurities by HPLC (%)", "setting": "[1]; [10]", "value": 0.48, "unit": "%"}, {"measurement": "L-OHP titre/standard (%)", "setting": "[1]; [10]", "value": 99.3, "unit": "%"}, {"measurement": "Oxalic acid titre (%)", "setting": "[1]; [10]", "value": "<0.1", "unit": "%"}, {"measurement": "Appearance of the solution", "setting": "[1]; Week 5, PA 11/PP bag, 75% RH", "value": "Clear,"}, {"measurement": "pH", "setting": "[1]; Week 5, PA 11/PP bag, 75% RH", "value": 5.23}, {"measurement": "Impurities by HPLC (%)", "setting": "[1]; [11]", "value": 0.45, "unit": "%"}, {"measurement": "L-OHP titre/standard (%)", "setting": "[1]; [11]", "value": 97.7, "unit": "%"}, {"measurement": "Oxalic acid titre (%)", "setting": "[1]; [11]", "value": "<0.1", "unit": "%"}, {"measurement": "Appearance of the solution", "setting": "[1]; Week 12, PA 11/PP bag, 75% RH", "value": "Clear,"}, {"measurement": "pH", "setting": "[1]; Week 12, PA 11/PP bag, 75% RH", "value": 5.35}, {"measurement": "Impurities by HPLC (%)", "setting": "[1]; [12]", "value": 0.40, "unit": "%"}, {"measurement": "L-OHP titre/standard (%)", "setting": "[1]; [12]", "value": 99.3, "unit": "%"}, {"measurement": "Oxalic acid titre (%)", "setting": "[1]; [12]", "value": "<0.1", "unit": "%"}, {"measurement": "period of stability of the liquid solution packed in a flexible bag", "setting": "[1]; liquid solution in flexible bag", "value": "stable for a period extending to more than three months, and even to more than six months; also recorded: stable for at least one year"}, {"measurement": "appearance of the solution over the whole period", "setting": "[1]; observed for twelve months, flexible bag", "value": "clarity and the absence of coloration"}, {"measurement": "stability compared with solution packed in a glass bottle", "setting": "[1]; same conditions, FIG. 6 vs FIG. 7", "value": "stability analogous"}, {"measurement": "tolerance of contact with PVC-based materials", "setting": "[2]", "value": "cannot tolerate being in contact with PVC-based materials"}]}
